In patent US6753459B2, “Transgenic plants and methods for production thereof” (National Research Council of Canada, priority 1998, dated 2004):

What was measured:
[1] = tested on: Brassica napus hypocotyl explants (AG019, altered oil profiles); assay: Brassica napus transformation, NAA in callusing and recovery media; type: cell-based; conditions: NAA added to callusing and recovery media; Brassica napus with altered oil profiles
Experimental: After co-cultivation, the cells are […] to callusing and recovery media for 7 days. Explants are then placed on selection medium containing macro and micro nutrients, vitamins and growth regulators which induce shoot formation. The selection medium also contains a bacteriocide, for example carbenicillin. Preferably, it also contains a selection agent. The cells are grown on the selection medium until shoots (putative transformants) develop. […] To enhance regeneration, any shoots which develop are transferred on a regular basis to fresh selection media. Plantlets are placed on a shoot elongation media and finally a rooting media.
A single colony of Agrobacterium containing the plant transformation vector construct is transferred to AB minimal medium (Watson et al., 1975) for 48 hr at 28° C., which gives at approx. density of 6×10^8 cfu/mL. Hypocotyls are harvested from the germinated seeds and transferred to the Pre-Culture medium (MMOM, 3% (w/v) sucrose, 5.0 mg/L BAP, 0.7% (w/v) agar, and NAA 0.1 mg/L, pH 5.8) and incubated for 3 days under the TC conditions described above. Hypocotyl explants are then transferred from the Pre-Culture medium to the AB minimal medium containing the Agrobacterium strain of interest and incubated for at least 2 min. […]

Non-transformed plants [2] = assay: NAM spray of non-transformed tobacco plants; type: in vivo; conditions: 200 ug/mL NAM with 0.1% Tween 20, sprayed to runoff
Text: Transformed tobacco plants containing the pJH 121 construct described above are recovered and tested using standard analysis to determine the presence of the inserted vector. […] Plants were sprayed to runoff using a pressurized sprayer. […] Non-transformed plants are unaffected by the treatment.

[3] = tested on: Transformed Brassica napus plants containing the construct pJH 121; assay: NAM spray of transformed Brassica napus plants containing pJH121; type: in vivo; conditions: 200 ug/mL NAM with 0.1% Tween 20, sprayed to runoff at three-four leaf stage; 25 days after spraying
Text: (§1) Transformed Brassica napus plants containing the construct pJH 121 described above are recovered and tested using standard analysis to determine the presence of the inserted vector. […] Plants were sprayed to runoff using a pressurized sprayer.

non-transgenic varieties = assay: NAM spray of non-transgenic Brassica napus varieties; type: in vivo; conditions: 200 ug/mL NAM with 0.1% Tween 20, sprayed to runoff; 25 days after spraying
Text: as §1

[4] = tested on: Transformed Brassica napus plants containing the construct pJH 125 (35S oncogene 2); assay: NAM spray of transformed Brassica napus plants containing pJH125; type: in vivo; conditions: 200 ug/mL NAM with 0.1% Tween 20, sprayed to runoff
Text: (§2) Transformed Brassica napus plants containing the construct pJH 125 (35S oncogene 2) described above are recovered and tested using standard analysis to determine the presence of the inserted vector. […] Plants were sprayed to runoff using a pressurized sprayer. […] Non-transformed plants are unaffected by the treatment.

Non-transformed plants [5] = assay: NAM spray of non-transformed Brassica napus plants; type: in vivo; conditions: 200 ug/mL NAM with 0.1% Tween 20, sprayed to runoff
Text: as §2

[6] = tested on: plants from JH 2984 and JH 2973 transformation events (pJH 125); assay: NAM as scorable marker agent in segregating populations JH 2984 and JH 2973; type: in vivo, Brassica napus; conditions: NAM 1 mg/mL at the 2-3 leaf stage; 24 hours after application
Text: In this example, 20 plants from JH 2984 and JH 2973 transformation events were planted. These transgenic varieties were segregating 3:1 for the inserted plant transformation vector pJH 125. […] These plants were subjected to PCR analysis for the presence of the transformation vector.

[7] = tested on: Transgenic seedlings from JH2973 and JH2984 (pJH 125); assay: In vitro seed germination in the presence of NAM and NPA, transgenic seedlings; type: in vivo, Brassica napus
Text: (§3) Oncogene 2 can be used as a selectable marker in seed germination and embryo rescue in vitro assays, allowing for an even earlier determination of the presence of the transformation vector in segregating populations. […] The in vitro assay reduces the time and physical space (e.g. number of plants in growth chambers or under cultivation) required to identify homozygous transgenic lines, and the embryo rescue method allows selection and recovery of transformed seedlings which reduces generation to generation cycle time a breeding program.
(§4) Non-transformed segregants grew normally. […] The presence of the transformation vector in these plants was confirmed as above.

[8] = tested on: Non-transformed segregants; assay: In vitro seed germination in the presence of NAM and NPA, non-transformed segregants; type: in vivo, Brassica napus; conditions: germinated in vitro in the presence of NAM and the auxin transport inhibitor NPA
Text: as §3, §4

[9] = tested on: transgenic plants expressing the oncogene 2; assay: Spray screen for transgenic plants expressing the oncogene 2; type: in vivo
Text: A simple procedure is provided to screen for transgenic plants expressing the oncogene 2. […] Plants which have been affected are selected.

[10] = tested on: Plants without the oncogene 2; assay: Spray screen, plants without the oncogene 2; type: in vivo; conditions: sprayed with formulated mixture
Experimental: A simple procedure is provided to screen for transgenic plants expressing the oncogene 2. Plant populations are sprayed with the formulated mixture of napthalene acetamide. […] Plants without the oncogene 2 are unaffected. Plants which have been affected are selected. These recover within 72 hours and continue to grow and set seed. This phenotypic response is transmitted to subsequent generations.

| SMILES | formation of transgenic shoots [1] | effect of treatment on non-transformed plants (Non-transformed plants [2]) | growth of transgenic plants [3] | growth of non-transgenic varieties (non-transgenic varieties) | visual phenotype of transformed plants ([4]; 2 days after spraying) | visual phenotype of transformed plants ([4]; within 5 days) | effect of treatment on non-transformed plants (Non-transformed plants [5]) | visual phenotype of putative transgenics (confirmed by PCR) [6] | recovery of putative transgenic seedlings ([7]; after transfer to non-selective media) | phenotype of transgenic seedlings ([7]; germinated in vitro in the presence of NAM and the auxin transport inhibitor NPA) | growth of non-transformed segregants [8] | visual phenotype of transgenic plants ([9]; sprayed with formulated mixture, within 24 hours) | time to recovery of affected plants ([9]; sub-lethal spray, plants continue to grow and set seed) [h] | effect on plants without the oncogene 2 [10] |
| --- | --- | --- | --- | --- | --- | --- | --- | --- | --- | --- | --- | --- | --- | --- |
| O=C(O)Cc1cccc2ccccc12 [NAA, napthalene acetic acid] | greatly increases the formation of transgenic shoots | – | – | – | – | – | – | – | – | – | – | – | – | – |
| NC(=O)Cc1cccc2ccccc12 [NAM, napthalene acetamide] | – | unaffected | remained stunted in growth | grew normally and flowered | leaves are drooping and the leaf margins curling | leaves are twisted and the plant shows typical auxin toxicity | unaffected | twisted leaves | recovered and grew normally | stunted seedlings, small cotyledons, stunted and swollen roots and callus at the root/shoot junction | grew normally | epinasty and obvious visual phenotypic changes | ≤ 72 | unaffected |
